The target in test [1] is T1, HER-2 (Homo sapiens, UniProt P04626).
T1 construct: the nucleotides encoding amino acids 679 to 1255 of HER-2; purchased Proqinase (Freiburg, Germany)
The test can be described thus: HER-2 Kinase Assay. Type of test: biochemical. As to conditions: for inhibition at 1 µM: test concentration of 1 μM, read-out: HER-2 percent inhibition. The procedure:
HER-2 kinase was purified at Proqinase (Freiburg, Germany) from a construct that consisted of a fusion of GST (Glutathione-S-Transferase), HIS6-Thrombin and the nucleotides encoding amino acids 679 to 1255 of HER-2.
A mixture of a 10× kinase reaction buffer (600 mM Hepes at pH 7.5, 30 mM Magnesium Chloride, 0.03 mM Sodium Vanadate and 500 μg/mL PEG 20,000), DTT (1.2 mM final from a 10 mM stock), ATP (1 μM from a 10 mM stock), biotinylated polyGluTyr (1.5 ng/μL final from stock of 1 μg/μL prepared by Upstate Biotechnologies, Lake Placid, N.Y.), Manganese Chloride (3 mM final from a 1 M stock), γ-^33P-ATP (10 μCi/μL stock) and water (70 μL/well) was added to each well of a Streptavidin Flashplate (Cat. #SMP103, NEN, Boston, Mass.).
Test compound stock (1 μL) was added to the appropriate wells. Diluted GSTHER2 kinase (6.7 ng/μL diluted into 50 mM Tris-HCl at pH 8.0 and 0.1% bovine serum albumin) (30 μL) was added (total volume of 200 ng/well) to initiate the reactions.
The reaction plates were incubated at 30° C. for 1 hr. The reaction was terminated by aspiring the reaction mixture from the plate wells and washing the wells three times with a 1×PBS stop buffer (300 μL) and 100 mM EDTA. After the final wash, the same stop buffer (200 μL) was again added to the wells. The plates were then sealed and read on the TopCount scintillation counter.
(§1) The IC50 was derived according to the procedure described in Example 2. For those compounds without an IC50, the percent inhibition results are shown at a test concentration of 1 μM.

For test [2], the target named is T2, VEGF-R2 (Rattus norvegicus, UniProt O08775).
T2 construct: polyhistidine (N)
T2 sequence (O08775 786-1343): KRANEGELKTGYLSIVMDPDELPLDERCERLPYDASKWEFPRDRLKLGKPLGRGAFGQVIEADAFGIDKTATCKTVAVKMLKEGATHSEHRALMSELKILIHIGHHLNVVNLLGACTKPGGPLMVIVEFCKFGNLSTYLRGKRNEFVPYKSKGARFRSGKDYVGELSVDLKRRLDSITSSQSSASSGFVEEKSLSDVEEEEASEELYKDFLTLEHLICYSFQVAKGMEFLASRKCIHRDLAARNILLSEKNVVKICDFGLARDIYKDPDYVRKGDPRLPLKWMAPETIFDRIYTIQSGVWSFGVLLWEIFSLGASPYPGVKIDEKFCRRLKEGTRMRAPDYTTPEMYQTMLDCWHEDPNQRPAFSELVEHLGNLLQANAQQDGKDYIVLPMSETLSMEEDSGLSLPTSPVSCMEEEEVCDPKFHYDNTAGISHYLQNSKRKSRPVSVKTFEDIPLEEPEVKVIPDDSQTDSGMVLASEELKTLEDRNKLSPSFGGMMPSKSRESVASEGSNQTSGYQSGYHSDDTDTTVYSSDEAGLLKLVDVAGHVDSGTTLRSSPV
The test can be described thus: VEGF-R2 Screening Assay. It is filed as biochemical. As to conditions: for inhibition at 1 µM: test concentration of 1 μM, read-out: VEGF-R2 percent inhibition. The procedure: (§2) A kinase reaction mixture was prepared containing 50 mM Tris-HCl at pH 8, 10 mM, MgCl20.1 mM […], 1 mM DTT, 10 μM ATP, 0.025 μM biotinylated histone-H1 peptide substrate and 0.2 μCuries per well ^33P-γ-ATP (2000-3000 Ci/mmol). 70 μL of the kinase reaction mixture was dispensed into the well of a Streptavidin FlashPlate.
(§3) Test compound stock in 100% DMSO (1 μL) was added to the wells resulting in a final concentration of 1% DMSO in the reaction with a 100 μL final reaction volume. Each enzyme was diluted in 50 mM Tris-HCl pH=8.0, 0.1% BSA and 30 μL was added to each well to initiate the reaction. The reaction was incubated for one hour at 30° C. At the end of the 1 hr incubation, the reaction was terminated by aspirating the mixture from the plate and washing the wells twice with PBS containing 100 mM EDTA. The biotinylated peptide substrate became immobilized on the Flashplate^198 and the incorporation of ^33P-γ-ATP was measured by reading the plate on a scintillation counter. Inhibition of the enzymatic activity was measured by observing a reduced amount of ^33P-γ-ATP incorporated into the immobilized peptide.
The VEGF-R2 enzyme is a fusion protein containing a polyhistidine tag at the N terminus followed by amino acids 786 to 1343 of the rat VEGF-R2 kinase domain (Accession number U93306). The assay used 150 ng of the N-terminal biotinylated peptide biotin-KHKKLAEGSAYEEV-amide (VEGF-R2) per well.
as §1

The target in test [3] is T3, Aurora-A (Mus musculus, UniProt P97477).
T3 construct: followed by the full length protein encoding the murine Aurora-A; polyhistidine (N); made in house; host or cells: sf9 insect cells
T3 sequence (P97477 1-395): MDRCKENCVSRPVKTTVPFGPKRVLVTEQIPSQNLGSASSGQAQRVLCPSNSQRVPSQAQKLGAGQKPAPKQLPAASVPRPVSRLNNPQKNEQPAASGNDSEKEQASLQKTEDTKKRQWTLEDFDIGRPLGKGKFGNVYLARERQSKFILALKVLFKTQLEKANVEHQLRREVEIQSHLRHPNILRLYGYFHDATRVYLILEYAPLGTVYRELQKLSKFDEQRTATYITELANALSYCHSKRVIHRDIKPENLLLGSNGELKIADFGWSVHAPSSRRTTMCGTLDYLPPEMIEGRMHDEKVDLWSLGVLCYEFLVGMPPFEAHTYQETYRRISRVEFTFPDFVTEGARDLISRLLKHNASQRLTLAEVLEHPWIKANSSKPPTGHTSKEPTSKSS
Put plainly: Aurora-A Screening Assay. It is filed as biochemical, murine. As to conditions: for inhibition at 1 µM: test concentration of 1 μM, read-out: Aurora-A percent inhibition. The protocol: as §2, §3
Aurora-A is a fusion protein containing a polyhistidine tag at the N terminus followed by the full length protein encoding the murine Aurora-A (Accession number GB BC014711) expressed and purified from sf9 insect cells. The assay used 400 ng of the N-terminal biotinylated peptide biotin-GRTGRRNSI-amide (Aurora-A) per well.
as §1

The target of test [4] is T4, EGFR (Homo sapiens, UniProt P00533).
T4 construct: The intracellular portion of EGFR started at nucleotide 2189 (corresponding to amino acid 667) and ended at the termination codon; made in house; host or cells: Sf9 insect cells (baculovirus)
T4 sequence (P00533 669-1210 limits assumed): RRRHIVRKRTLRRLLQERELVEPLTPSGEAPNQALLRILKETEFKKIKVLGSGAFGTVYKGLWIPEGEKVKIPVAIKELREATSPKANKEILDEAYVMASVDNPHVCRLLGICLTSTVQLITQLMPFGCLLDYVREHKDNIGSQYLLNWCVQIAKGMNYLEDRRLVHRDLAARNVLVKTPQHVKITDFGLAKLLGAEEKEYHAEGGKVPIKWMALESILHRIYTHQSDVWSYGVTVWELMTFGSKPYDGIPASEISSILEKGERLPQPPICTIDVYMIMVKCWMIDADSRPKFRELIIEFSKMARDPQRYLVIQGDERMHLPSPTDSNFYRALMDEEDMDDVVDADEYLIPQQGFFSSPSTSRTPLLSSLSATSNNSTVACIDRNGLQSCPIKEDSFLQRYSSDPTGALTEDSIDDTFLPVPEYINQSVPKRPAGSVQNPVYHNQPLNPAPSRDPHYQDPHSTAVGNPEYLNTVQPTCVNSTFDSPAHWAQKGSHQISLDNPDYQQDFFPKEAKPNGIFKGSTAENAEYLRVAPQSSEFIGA
The test can be described thus: EGFR Kinase Assay. As to conditions: for inhibition at 2 µM: test concentration of 2 μM, read-out: EGFR percent inhibition. Type of test: biochemical. An excerpt: The EGFR kinase used was a fusion of Glutathione-S-Transferase (GST) and a PCR amplified intracellular portion of EGFR (NM_005228). The intracellular portion of EGFR started at nucleotide 2189 (corresponding to amino acid 667) and ended at the termination codon. The portion was PCR amplified with primers that added the lambda attB sequences to each end, recombined into an entry vector, then into a GST destination vector (as described in Gateway Technologies Manual by Invitrogen Corporation, Carlsbad, Calif.).
The destination vector was recombined in the DH10BAC strain of bacteria to produce a bacmid. The bacmid was transfected into Sf 9 cells and the supernatant containing the baculovirus was collected. The GSTEGFR protein was purified using large cultures of Sf 9 cells infected with stock virus. After an appropriate period of time, the cells were collected and lysed. The GSTEGFR was then purified from the lysate on Glutathione-Sepharose columns (as described by Amersham Biosciences, Buckinghamshire, United Kingdom).
The EGFR substrate was prepared by biotinylating polyGluTyr (128 mg) (Sigma, St. Louis, Mo.) in a 1×PBS buffer incubated together with a 12-fold molar excess of Sulfo-NHS-LC-Biotin on ice for at least 2 hrs. The free biotin was separated from the biotinylated polyGluTyr on a gel filtration column.
A mixture of a 10× kinase buffer (500 mM Tris at pH 8.0, 100 mM Magnesium Chloride and 1 mM Sodium Vanadate), DTT (1 mM final from 500 mM stock), ATP (5 μM final from 10 mM stock), biotinylated polyGluTyr (10 μg/μL stock), γ-^33P ATP (10 μCi/μL stock) and water was added to each well (90 μL/well) of a Streptavidin Flashplate (Perkin Elmer, Wellesley, Mass.).
Test compound in 100% DMSO (2 μL) was added to the appropriate wells. Diluted GSTEGFR (1:300 dilution in 50 mM Tris at pH 8.0 and 0.1% bovine serum albumin) (10 μL) was added to the wells to initiate the reactions.
The plates were incubated at 30° C. for 1 hr with shaking. The reacted contents were removed and the plates were sequentially washed three times with a 1×PBS stop buffer (300 μL without Magnesium and Calcium) and 100 mM EDTA. After the final wash, the same stop buffer (200 μL) was added to the wells. The plates were then sealed and read on the TopCount scintillation counter.
Test compounds were assayed in triplicate at 16 concentrations at half-log dilutions starting at 200 uM. A maximum and minimum signal for the assay was determined on each plate. The percent inhibition of a test compound was calculated according to the formula
For a series of test concentrations, the IC50 was derived by graphing percent inhibition against the log of the concentrations tested for a given compound. For those compounds without an IC50, the percent inhibition results are shown at a test concentration of 2 μM.

Structures are written as SMILES. pIC50: −log10 of the molar value.

One may read the inhibition as the change of the read-out against control, counted positive when it falls. What is called pIC50 is the negative decadic logarithm of the IC50, by convention in mol/L. A lower pIC50 goes with a large IC50.

T1 sequence (P04626 679-1255): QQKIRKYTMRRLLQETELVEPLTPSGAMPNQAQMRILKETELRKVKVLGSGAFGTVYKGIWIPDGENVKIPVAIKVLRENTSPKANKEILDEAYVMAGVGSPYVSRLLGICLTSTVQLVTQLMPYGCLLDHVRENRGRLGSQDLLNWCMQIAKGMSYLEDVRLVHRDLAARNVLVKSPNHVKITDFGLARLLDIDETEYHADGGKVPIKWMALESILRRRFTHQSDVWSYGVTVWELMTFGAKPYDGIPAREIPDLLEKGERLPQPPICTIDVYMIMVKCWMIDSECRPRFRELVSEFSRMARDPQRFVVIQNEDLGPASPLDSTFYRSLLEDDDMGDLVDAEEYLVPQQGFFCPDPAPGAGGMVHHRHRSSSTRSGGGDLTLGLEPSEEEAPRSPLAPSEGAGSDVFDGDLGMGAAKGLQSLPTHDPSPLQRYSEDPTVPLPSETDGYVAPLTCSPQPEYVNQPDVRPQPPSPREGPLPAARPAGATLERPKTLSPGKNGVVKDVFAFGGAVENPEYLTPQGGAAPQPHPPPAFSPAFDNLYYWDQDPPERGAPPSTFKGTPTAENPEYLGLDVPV

Consider `N#Cc1cnc2sc(C(=O)Nc3ccc(CN4CCCC(CO)C4)cc3)c3c2c1N(c1c(Cl)ccc2c1OCO2)C(=O)N3` (stereo not drawn) [Cpd 20, 5-(5-chloro-benzo[1,3]dioxol-4-yl)-6-cyano-4-oxo-4,5-dihydro-3H-1-thia-3,5,8-triaza-acenaphthylene-2-carboxylic acid [4-(3-hydroxymethyl-piperidin-1-ylmethyl)-phenyl]-amide], for which the inhibition at 1 µM in test [1] amounted to 41%; in test [2], 24%; in test [3] it was 21%. In test [4], this molecule gave a pIC50 of 6.04.
Regarding `N#Cc1cnc2sc(C(=O)Nc3ncccn3)c3c2c1N(c1c(Cl)ccc2c1OCO2)C(=O)N3` [Cpd 35, 5-(5-chloro-benzo[1,3]dioxol-4-yl)-6-cyano-4-oxo-4,5-dihydro-3H-1-thia-3,5,8-triaza-acenaphthylene-2-carboxylic acid pyrimidin-2-ylamide], the pIC50 in test [1] was under 6.00. For the same molecule, the inhibition at 1 µM in test [2] worked out at 22%; in test [3] it was 16%. Also, in test [4], the inhibition at 2 µM is 42%.
`Cn1ccc(NC(=O)c2sc3ncc(C#N)c4c3c2NC(=O)N4c2c(Cl)ccc3c2OCO3)n1` [Cpd 39, 5-(5-chloro-benzo[1,3]dioxol-4-yl)-6-cyano-4-oxo-4,5-dihydro-3H-1-thia-3,5,8-triaza-acenaphthylene-2-carboxylic acid (1-methyl-1H-pyrazol-3-yl)-amide]: the inhibition at 1 µM in test [1] stood at 0%; in test [2] it was 9%; in test [3] it was 15%. In addition, the inhibition at 2 µM in test [4] came out at 26%.
`Cc1cc(NC(=O)c2sc3ncc(C#N)c4c3c2NC(=O)N4c2c(Cl)ccc3c2OCO3)no1` [Cpd 34, 5-(5-chloro-benzo[1,3]dioxol-4-yl)-6-cyano-4-oxo-4,5-dihydro-3H-1-thia-3,5,8-triaza-acenaphthylene-2-carboxylic acid (5-methyl-isoxazol-3-yl)-amide] had a pIC50 in test [1] of under 6.00. Also, the inhibition at 1 µM in test [2] is 16%; in test [3], 29%. Besides, the inhibition at 2 µM in test [4] is 30%.
For `N#Cc1cnc2sc(C(=O)Nc3ccc(CN4CCC(CO)CC4)cc3)c3c2c1N(c1c(Cl)ccc2c1OCO2)C(=O)N3` [Cpd 22, 5-(5-chloro-benzo[1,3]dioxol-4-yl)-6-cyano-4-oxo-4,5-dihydro-3H-1-thia-3,5,8-triaza-acenaphthylene-2-carboxylic acid [4-(4-hydroxymethyl-piperidin-1-ylmethyl)-phenyl]-amide], the values for the inhibition at 1 µM in test [1] and in test [3] were 48% and 15%, respectively. Moreover, the negative-log IC50 (pIC50) in test [2] is under 4.00; in test [4] it was 6.25.
Consider `C[C@@H]1CN(Cc2ccc(NC(=O)c3sc4ncc(C#N)c5c4c3NC(=O)N5c3c(Cl)ccc4c3OCO4)cc2)C[C@H](C)O1` [Cpd 25, 5-(5-chloro-benzo[1,3]dioxol-4-yl)-6-cyano-4-oxo-4,5-dihydro-3H-1-thia-3,5,8-triaza-acenaphthylene-2-carboxylic acid [4-(2,6-cis-dimethyl-morpholin-4-ylmethyl)-phenyl]-amide], for which the figures for the inhibition at 1 µM in test [1], in test [2] and in test [3] were 3%, 0% and 18%, respectively. The inhibition at 2 µM in test [4] was determined as 24%.
As for `N#Cc1cnc2sc(C(=O)Nc3cccnc3)c3c2c1N(c1c(Cl)ccc2c1OCO2)C(=O)N3` [Cpd 36, 5-(5-chloro-benzo[1,3]dioxol-4-yl)-6-cyano-4-oxo-4,5-dihydro-3H-1-thia-3,5,8-triaza-acenaphthylene-2-carboxylic acid pyridin-3-ylamide], the inhibition at 1 µM in test [1] is 29%; in test [2], 15%; in test [3], 21%. Further, in test [4], the inhibition at 2 µM is 35%.
In the case of `CCOC(=O)c1sc2nc(O)c(C#N)c3c2c1NC(=O)N3c1ccc(Oc2ccccc2)cc1` [Cpd 52, 6-cyano-7-hydroxy-4-oxo-5-(4-phenoxy-phenyl)-4,5-dihydro-3H-1-thia-3,5,8-triaza-acenaphthylene-2-carboxylic acid ethyl ester], the pIC50 in test [1] is under 5.00; in test [2], under 4.00; in test [3], under 4.00; in test [4], 7.77.
Take `N#Cc1cnc2sc(C(=O)Nc3ccc(CN4CCC(F)(F)CC4)cc3)c3c2c1N(c1c(Cl)ccc2c1OCO2)C(=O)N3` [Cpd 54, 5-(5-chloro-benzo[1,3]dioxol-4-yl)-6-cyano-4-oxo-4,5-dihydro-3H-1-thia-3,5,8-triaza-acenaphthylene-2-carboxylic acid [4-(4,4-difluoro-piperidin-1-ylmethyl)-phenyl]-amide]: the negative-log IC50 (pIC50) was 5.47 in test [1], 4.91 in test [2] and 4.82 in test [3]. Further, the inhibition at 2 µM in test [4] stood at 11%.

The values above are taken from patent publication US7427625B2, “Substituted thiatriazaacenaphthylene-6-carbonitrile kinase inhibitors” (Janssen Pharmaceutica, N.V., priority 2006, dated 2008).
